23 compounds from patent publication US20220282217A1, “COMPOSITIONS AND METHODS FOR PREPARING T CELL COMPOSITIONS AND USES THEREOF” (priority 2019, published 2022) can be followed below.

Like-named read-outs stand apart in the source and are kept apart here. Where a SMILES comes first, the peptide text is derived from it.

In experiment [1] the target is HLA-A03.01 (Homo sapiens, UniProt P04439). Kind of experiment: Class I MHC peptide binding affinity (displacement of radiolabeled reference peptide). The conditions noted are these: allele A03.01; read-out: Observed Affinity (IC50; (nM)).
Experiment [2] addresses T1, HLA-A02.01 (Homo sapiens, UniProt P04439, D140Y/D185E/D98H/E176V/E277Q/G131W/G231S/I119V/I121R/I166T/I218V/N151K/N90K/P208A/P217A/Q86G/Q94H/R138H/R169H).
T1 construct: made in house; host or cells: E. coli
Kind of experiment: Class I MHC peptide binding stability (pMHC-I dissociation, 125I-labeled light chain). The note with it: for Stability (T1/2 (h)): allele A02.01.

The target in experiment [3] is HLA-A02.01 (Homo sapiens, UniProt P04439, D140Y/D185E/D98H/E176V/E277Q/G131W/G231S/I119V/I121R/I166T/I218V/L300P/L318F/N151K/N90K/P208A/P217A/Q86G/Q94H/R138H/R169H/T345S). Kind of experiment: Class I MHC peptide binding affinity (displacement of radiolabeled reference peptide). In a few lines: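 Read-out: radioactivity of reference peptide retained on MHCI, separated from free label by gel-filtration size exclusion. Competing peptides are titrated against the preformed complexes and incubated two days beforehand.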

The mark [4] stands for this setting: allele A02.01, read-out: Observed Affinity (IC50, (nM)).

By IC50 is commonly meant the point on the concentration scale where inhibition reaches its midpoint. On to `CC[C@H](C)[C@H](NC(=O)[C@H](C)N)C(=O)N[C@@H](CO)C(=O)N[C@H](C(=O)N[C@@H](CCCNC(=N)N)C(=O)N[C@@H](CC(=O)O)C(=O)N1CCC[C@H]1C(=O)N[C@@H](CC(C)C)C(=O)N[C@@H](CO)C(=O)N[C@@H](CCCCN)C(=O)O)[C@@H](C)O` (H-AISTRDPLSK-OH; N-terminus and C-terminus assumed), for which, in experiment [1], the IC50 is 57.5 nM.
The same measure, in the same setting: the figure for `CSCC[C@H](NC(=O)[C@@H](N)CCCCN)C(=O)N[C@@H](CCCNC(=N)N)C(=O)N[C@@H](CCCCN)C(=O)N[C@@H](CCCCN)C(=O)N[C@@H](Cc1ccc(O)cc1)C(=O)N[C@@H](C)C(=O)N[C@@H](CCC(N)=O)C(=O)N[C@@H](CCCCN)C(=O)O` (H-KMRKKYAQK-OH; N-terminus and C-terminus assumed) is 5.7 nM; for `CSCC[C@H](NC(=O)[C@H](CC(C)C)NC(=O)[C@@H](N)CCCCN)C(=O)N[C@@H](CC(C)C)C(=O)N[C@@H](CC(C)C)C(=O)N[C@@H](CCCNC(=N)N)C(=O)N[C@@H](CC(C)C)C(=O)N[C@@H](CC(N)=O)C(=O)N[C@@H](CC(C)C)C(=O)N[C@@H](CCCNC(=N)N)C(=O)O` (H-KLMLLRLNLR-OH; N-terminus and C-terminus assumed) it is 48.4 nM; for `CC(C)C[C@H](NC(=O)[C@H](C)N)C(=O)N[C@@H](Cc1ccccc1)C(=O)N[C@@H](Cc1ccccc1)C(=O)N[C@@H](Cc1ccccc1)C(=O)N[C@@H](Cc1ccccc1)C(=O)N[C@@H](Cc1ccccc1)C(=O)N[C@@H](CCC(=O)O)C(=O)N[C@H](C(=O)N[C@@H](CCCCN)C(=O)O)[C@@H](C)O` (H-ALFFFFFETK-OH; N-terminus and C-terminus assumed) it is 216 nM.
Take `CC[C@H](C)[C@H](NC(=O)[C@H](C)NC(=O)[C@H](CS)NC(=O)[C@@H](NC(=O)[C@@H](N)Cc1ccc(O)cc1)[C@@H](C)O)C(=O)N[C@H](C(=O)N[C@H](C(=O)N[C@H](C(=O)N[C@@H](CCCCN)C(=O)O)C(C)C)[C@@H](C)O)[C@@H](C)O`: the IC50 in experiment [1] came to 122 nM.
Still for that read-out and setting: the figure for `CC(C)C[C@H](N)C(=O)N[C@H](C(=O)N[C@@H](CO)C(=O)N[C@@H](CO)C(=O)N[C@@H](CO)C(=O)N[C@@H](CCCNC(=N)N)C(=O)N[C@@H](CCC(=O)O)C(=O)N[C@@H](Cc1c[nH]c2ccccc12)C(=O)N[C@@H](CCCCN)C(=O)O)[C@@H](C)O` (H-LTSSSREWK-OH; N-terminus and C-terminus assumed) is 118 nM.
The same measure, in the same setting: the figure for `CC(C)C[C@H](NC(=O)[C@@H](NC(=O)[C@@H](N)[C@@H](C)O)[C@@H](C)O)C(=O)N[C@@H](CC(N)=O)C(=O)N[C@@H](CO)C(=O)N1CCC[C@H]1C(=O)N1CCC[C@H]1C(=O)N[C@@H](CC(C)C)C(=O)N[C@@H](CCCCN)C(=O)N[C@@H](CCCCN)C(=O)O` (H-TTLNSPPLKK-OH; N-terminus and C-terminus assumed) is 14.3 nM.
For `CC(C)C[C@H](N)C(=O)N[C@@H](Cc1ccccc1)C(=O)N[C@@H](Cc1ccccc1)C(=O)N[C@@H](Cc1ccccc1)C(=O)N[C@@H](Cc1ccccc1)C(=O)N[C@@H](Cc1ccccc1)C(=O)N[C@@H](CCC(=O)O)C(=O)N[C@H](C(=O)N[C@@H](CCCCN)C(=O)O)[C@@H](C)O` (H-LFFFFFETK-OH; N-terminus and C-terminus assumed), in experiment [1], the IC50 was 413 nM.
Regarding `CC(C)C[C@H](NC(=O)[C@H](Cc1ccccc1)NC(=O)[C@H](CO)NC(=O)[C@@H](N)CC(C)C)C(=O)N[C@@H](CO)C(=O)N[C@@H](CO)C(=O)N[C@@H](Cc1c[nH]c2ccccc12)C(=O)N[C@@H](CC(=O)O)C(=O)N[C@@H](Cc1ccc(O)cc1)C(=O)N[C@@H](CCCNC(=N)N)C(=O)O` (H-LSFLSSWDYR-OH; N-terminus and C-terminus assumed), the IC50 in experiment [1] was 101 nM.
Still for that read-out and setting: the figure for `CC[C@H](C)[C@H](NC(=O)[C@H](CS)NC(=O)[C@H](Cc1ccccc1)NC(=O)[C@H](CC(N)=O)NC(=O)[C@H](C)NC(=O)[C@H](CC(C)C)NC(=O)[C@@H](N)CS)C(=O)N[C@@H](Cc1ccccc1)C(=O)N[C@@H](CC(N)=O)C(=O)N[C@@H](CCCNC(=N)N)C(=O)O` is 222 nM; for `CC(C)C[C@H](NC(=O)[C@@H](N)CO)C(=O)N[C@@H](CCC(N)=O)C(=O)N1CCC[C@H]1C(=O)N1CCC[C@H]1C(=O)N1CCC[C@H]1C(=O)N1CCC[C@H]1C(=O)NCC(=O)N[C@@H](Cc1ccccc1)C(=O)N[C@@H](CCCCN)C(=O)O` (H-SLQPPPPGFK-OH; N-terminus and C-terminus assumed) it is 19 nM.
For the compound `CC(C)C[C@H](NC(=O)[C@H](CCC(N)=O)NC(=O)[C@H](CC(C)C)NC(=O)[C@H](Cc1c[nH]cn1)NC(=O)[C@H](CC(N)=O)NC(=O)[C@H](CCC(N)=O)NC(=O)[C@H](CCCNC(=N)N)NC(=O)[C@H](CO)NC(=O)[C@@H](N)CCCCN)C(=O)N[C@@H](CCCCN)C(=O)O` (H-KSRQNHLQLK-OH; N-terminus and C-terminus assumed), the IC50 in experiment [1] was determined as 4.7 nM.
`CSCC[C@H](NC(=O)[C@H](C)N)C(=O)N[C@H](C(=O)N[C@H](C(=O)N[C@@H](CO)C(=O)N[C@@H](CO)C(=O)N[C@@H](CO)C(=O)N[C@@H](CCC(N)=O)C(=O)N[C@@H](CCCCN)C(=O)N[C@@H](CC(N)=O)C(=O)O)[C@@H](C)O)[C@@H](C)O` (H-AMTTSSSQKN-OH; N-terminus and C-terminus assumed): in experiment [1], the half-inhibitory concentration (IC50) amounted to 2340 nM.
As to `C[C@@H](O)[C@H](NC(=O)[C@@H](N)CCCCN)C(=O)N[C@@H](Cc1ccccc1)C(=O)N[C@@H](CCC(=O)O)C(=O)N[C@@H](CCCCN)C(=O)N[C@@H](CCCCN)C(=O)NCC(=O)N[C@@H](CCC(=O)O)C(=O)N[C@@H](CCCCN)C(=O)O` (H-KTFEKKGEK-OH; N-terminus and C-terminus assumed), the IC50 in experiment [1] amounted to 32.2 nM.
`CC[C@H](C)[C@H](NC(=O)[C@H](CCCCN)NC(=O)[C@@H](N)CCCNC(=N)N)C(=O)N[C@@H](CO)C(=O)N[C@@H](CC(N)=O)C(=O)N[C@@H](Cc1c[nH]c2ccccc12)C(=O)N[C@@H](CO)C(=O)N[C@@H](CC(C)C)C(=O)N[C@@H](CCCCN)C(=O)N[C@@H](CCCCN)C(=O)O` (H-RKISNWSLKK-OH; N-terminus and C-terminus assumed): the IC50 in experiment [1] turned out to be 131 nM.
`CC(C)C[C@H](NC(=O)[C@@H](N)CC(C)C)C(=O)N[C@H](C(=O)N[C@@H](CO)C(=O)N[C@@H](CO)C(=O)N[C@@H](CO)C(=O)N[C@@H](CCCNC(=N)N)C(=O)N[C@@H](CCC(=O)O)C(=O)N[C@@H](Cc1c[nH]c2ccccc12)C(=O)N[C@@H](CCCCN)C(=O)O)[C@@H](C)O` (H-LLTSSSREWK-OH; N-terminus and C-terminus assumed): the IC50 in experiment [1] stood at 1770 nM.
Same read-out and setting: the figure for `CC[C@H](C)[C@H](NC(=O)[C@H](C)NC(=O)[C@H](CS)NC(=O)[C@@H](NC(=O)[C@H](Cc1ccc(O)cc1)NC(=O)[C@@H](N)[C@@H](C)O)[C@@H](C)O)C(=O)N[C@H](C(=O)N[C@H](C(=O)N[C@H](C(=O)N[C@@H](CCCCN)C(=O)O)C(C)C)[C@@H](C)O)[C@@H](C)O` (H-TYTCAITTVK-OH; N-terminus and C-terminus assumed) is 2360 nM.
Consider `CC(C)C[C@H](N)C(=O)N[C@H](C(=O)N[C@H](C(=O)N[C@H](C(=O)NCC(=O)N[C@@H](C)C(=O)N[C@@H](CS)C(=O)NCC(=O)N[C@H](C(=O)O)C(C)C)C(C)C)C(C)C)C(C)C` (H-LVVVGACGV-OH; N-terminus and C-terminus assumed), for which, in experiment [2] (HLA Allele A02.01, time for half of the complexes to dissociate at 37° C.), the “Measured stability” value worked out at 0.6 h. Also, in experiment [2], the “Stability (T1/2 (h))” value worked out at 0.6 h. The IC50 in experiment [3] (Measured Affinity (nM), HLA Allele A02.01) is 667 nM; in experiment [3] (Observed Affinity (IC50, (nM)), allele A02.01), 1210 nM.
`CC[C@H](C)[C@H](NC(=O)[C@H](CC(C)C)NC(=O)[C@H](Cc1c[nH]cn1)NC(=O)[C@@H](NC(=O)[C@H](CO)NC(=O)[C@H](CC(C)C)NC(=O)[C@H](CC(C)C)NC(=O)[C@@H](N)C(C)C)C(C)C)C(=O)N[C@H](C(=O)O)C(C)C` (H-VLLSVHLIV-OH; N-terminus and C-terminus assumed): the “Stability (T1/2 (h))” value in experiment [2] came out at 11 h. Further, the IC50 in experiment [3] (setting [4]) came out at 72 nM.
Taken in the same sequence, the figures for `CSCC[C@H](NC(=O)[C@@H](N)CO)C(=O)N[C@@H](CC(C)C)C(=O)N[C@H](C(=O)N[C@@H](CC(=O)O)C(=O)N[C@@H](CO)C(=O)N[C@@H](CC(C)C)C(=O)N[C@@H](Cc1ccccc1)C(=O)N[C@@H](CC(C)C)C(=O)O)[C@@H](C)O` (H-SMLTDSLFL-OH; N-terminus and C-terminus assumed) were 9.8 h and 31 nM.
Taken in the same sequence, the figures for LQMDFLVEIPA were 1.5 h and 68 nM.
Taken in the same sequence, the figures for `CC(C)[C@H](NC(=O)[C@H](CO)NC(=O)[C@H](Cc1ccccc1)NC(=O)[C@H](Cc1ccccc1)NC(=O)[C@H](Cc1ccccc1)NC(=O)[C@H](Cc1ccccc1)NC(=O)[C@H](CS)NC(=O)[C@@H](NC(=O)[C@@H](N)CO)C(C)C)C(=O)O` were 9.4 h and 175 nM.
Turning to `CSCC[C@H](NC(=O)[C@H](CCC(=O)O)NC(=O)[C@H](CC(C)C)NC(=O)[C@H](CC(C)C)NC(=O)[C@H](CC(C)C)NC(=O)CNC(=O)[C@H](Cc1ccc(O)cc1)NC(=O)[C@H](CC(C)C)NC(=O)[C@@H]1CCCN1)C(=O)O` (H-PLYGLLLEM-OH; N-terminus and C-terminus assumed), the “Stability (T1/2 (h))” value in experiment [2] came out at 0.7 h. The IC50 in experiment [3] (setting [4]) amounted to 640 nM.
